Measurements from patent publication US20250034136A1 (Nimbus Wadjet, Inc., priority 2023, published 2025).
pEC50, pIC50: −log10 of the molar value. Like-named read-outs stand apart in the source and are kept apart here.

Key:
[1] = tested on: p21 induction in HCT116 cells; experiment: p21 induction in HCT116 cells; assay type: cell-based; conditions: Homo sapiens, HCT-116, 24 h, read-out: P21_EC50
Summary of the method: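 HCT116 cells, 2,000/well, treated 24 h at 37 °C with 11-point compound dilutions in duplicate. Fixed, then immunostained for p21 and GAPDH and read by near-IR imaging at 800/700 nm. Normalized to DMSO (low) and reference WRN inhibitor (high) controls; EC50 from non-linear regression.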

[2] = biological target: WRN (BV08), human Werner helicase (Uniprot Q14191, amino acids 517-1235 with L1074F point mutation) (Homo sapiens (Human), UniProt Q14191, L1074F); experiment: WRN (BV08) ADP-Glo assay; assay type: biochemical; conditions: class symbols A-E, read-out: ADP-Glo_hWRN_IC50
Sequence of WRN (BV08), human Werner helicase (Uniprot Q14191, amino acids 517-1235 with L1074F point mutation) (Q14191 other isoform, or with tags, fused parts or gaps L1074F (already in the parent)): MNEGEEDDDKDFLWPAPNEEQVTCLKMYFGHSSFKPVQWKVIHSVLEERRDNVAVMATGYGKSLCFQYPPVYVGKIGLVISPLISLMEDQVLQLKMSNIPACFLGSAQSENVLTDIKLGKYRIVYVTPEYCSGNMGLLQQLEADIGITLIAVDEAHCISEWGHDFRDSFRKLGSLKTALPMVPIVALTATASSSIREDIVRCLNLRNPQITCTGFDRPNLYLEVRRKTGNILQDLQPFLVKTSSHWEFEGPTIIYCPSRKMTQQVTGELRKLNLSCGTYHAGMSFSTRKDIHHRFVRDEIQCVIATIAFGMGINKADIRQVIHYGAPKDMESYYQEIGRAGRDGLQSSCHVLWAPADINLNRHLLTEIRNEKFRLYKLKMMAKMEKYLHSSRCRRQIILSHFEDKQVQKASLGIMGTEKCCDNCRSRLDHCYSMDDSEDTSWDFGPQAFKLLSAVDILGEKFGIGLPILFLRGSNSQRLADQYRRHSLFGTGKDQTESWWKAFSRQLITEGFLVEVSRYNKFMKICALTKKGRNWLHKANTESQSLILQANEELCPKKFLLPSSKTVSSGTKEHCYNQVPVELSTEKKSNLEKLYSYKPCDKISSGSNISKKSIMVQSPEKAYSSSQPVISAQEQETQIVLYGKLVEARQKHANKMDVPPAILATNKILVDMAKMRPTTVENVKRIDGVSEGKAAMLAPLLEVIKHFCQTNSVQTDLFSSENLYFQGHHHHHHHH

[3] = HCT116 cells, 24 h compound incubation

Row | Structure (SMILES) | pEC50 [1, 3] | pIC50 [2] | pEC50 [1]
1 | CCc1c(N2CCN(C(=O)c3ncnc(C)c3O)C[C@H]2C)c(=O)c2nc(N(C)C)cnc2n1CC(=O)Nc1ccc(C(F)(F)F)cc1Cl [I-99, (R)—N-(2-chloro-4-(trifluoromethyl)phenyl)-2-(2-(dimethylamino)-6-ethyl-7-(4-(5-hydroxy-6-methylpyrimidine-4-carbonyl)-2-methylpiperazin-1-yl)-8-oxopyrido[2,3-b]pyrazin-5(8H)-yl)acetamide] | < 5.30 | 7.30 to 8.30 | –
2 | CCc1c(N2CCN(C(=O)c3ncnc(C)c3O)[C@H]3CC[C@@H]32)c(=O)c2nc(C3CC3)cnc2n1CC(=O)Nc1ccc(C(F)(F)F)cc1Cl [I-100, N-(2-chloro-4-(trifluoromethyl)phenyl)-2-(2-cyclopropyl-6-ethyl-7-((1S,6S)-5-(5-hydroxy-6-methylpyrimidine-4-carbonyl)-2,5-diazabicyclo[4.2.0]octan-2-yl)-8-oxopyrido[2,3-b]pyrazin-5(8H)-yl)acetamide] | > 6.30 | ≥ 8.30 | –
3 | CCc1c(N2CCN(C(=O)c3ncnc(C)c3O)[C@H]3CC[C@@H]32)c(=O)c2nc(OC3CC3)cnc2n1CC(=O)Nc1ccc(C(F)(F)F)cc1Cl [I-102, N-(2-chloro-4-(trifluoromethyl)phenyl)-2-(2-cyclopropoxy-6-ethyl-7-((1S,6S)-5-(5-hydroxy-6-methylpyrimidine-4-carbonyl)-2,5-diazabicyclo[4.2.0]octan-2-yl)-8-oxopyrido[2,3-b]pyrazin-5(8H)-yl)acetamide] | > 6.30 | ≥ 8.30 | –
4 | CCc1c(N2CCN(C(=O)c3ncnc(C)c3O)[C@H]3CC[C@@H]32)c(=O)c2nc(N(C)C)cnc2n1CC(=O)Nc1ccc(C(F)(F)F)cc1C [I-103, 2-(2-(dimethylamino)-6-ethyl-7-((1S,6S)-5-(5-hydroxy-6-methylpyrimidine-4-carbonyl)-2,5-diazabicyclo[4.2.0]octan-2-yl)-8-oxopyrido[2,3-b]pyrazin-5(8H)-yl)-N-(2-methyl-4-(trifluoromethyl)phenyl)acetamide] | > 6.30 | 7.30 to 8.30 | –
5 | CCc1c(N2CCN(C(=O)c3ncnc(C)c3O)[C@H]3CC[C@@H]32)c(=O)c2nc(N(C)C)cnc2n1CC(=O)Nc1ccc(C(F)(F)F)cc1 [I-104, 2-(2-(dimethylamino)-6-ethyl-7-((1S,6S)-5-(5-hydroxy-6-methylpyrimidine-4-carbonyl)-2,5-diazabicyclo[4.2.0]octan-2-yl)-8-oxopyrido[2,3-b]pyrazin-5(8H)-yl)-N-(4-(trifluoromethyl)phenyl)acetamide] | > 6.30 | 7.30 to 8.30 | –
6 | CCc1c(N2CCN(C(=O)c3ncnc(C)c3O)[C@H]3CC[C@@H]32)c(=O)c2nc(N3CCCC3)cnc2n1CC(=O)Nc1ccc(C(F)(F)F)cc1Cl [I-105, N-(2-chloro-4-(trifluoromethyl)phenyl)-2-(6-ethyl-7-((1S,6S)-5-(5-hydroxy-6-methylpyrimidine-4-carbonyl)-2,5-diazabicyclo[4.2.0]octan-2-yl)-8-oxo-2-(pyrrolidin-1-yl)pyrido[2,3-b]pyrazin-5(8H)-yl)acetamide] | > 6.30 | 7.30 to 8.30 | –
7 | CCc1c(N2CCN(C(=O)c3ncnc(C)c3O)[C@H]3CC[C@@H]32)c(=O)c2nc(N(C)C)c(C)nc2n1CC(=O)Nc1ccc(C(F)(F)F)cc1Cl [I-107, N-(2-chloro-4-(trifluoromethyl)phenyl)-2-(2-(dimethylamino)-6-ethyl-7-((1S,6S)-5-(5-hydroxy-6-methylpyrimidine-4-carbonyl)-2,5-diazabicyclo[4.2.0]octan-2-yl)-3-methyl-8-oxopyrido[2,3-b]pyrazin-5(8H)-yl)acetamide] | > 6.30 | ≥ 8.30 | –
8 | CCc1c(N2CCN(C(=O)c3ncnc(C)c3O)CC2)c(=O)c2nc(N(C)C)cnc2n1CC(=O)NC12CC(C(F)(F)F)(C1)C2 [I-108, 2-(2-(dimethylamino)-6-ethyl-7-(4-(5-hydroxy-6-methylpyrimidine-4-carbonyl)piperazin-1-yl)-8-oxopyrido[2,3-b]pyrazin-5(8H)-yl)-N-(3-(trifluoromethyl)bicyclo[1.1.1]pentan-1-yl)acetamide] | < 5.30 | 6.30 to 7.00 | –
9 | CCc1c(N2CCN(C(=O)c3ncnc(C)c3O)CC2)c(=O)c2nc(N(C)C)c(F)cc2n1CC(=O)Nc1ccc(C(F)(F)F)cc1Cl [I-109, N-(2-chloro-4-(trifluoromethyl)phenyl)-2-(6-(dimethylamino)-2-ethyl-7-fluoro-3-(4-(5-hydroxy-6-methylpyrimidine-4-carbonyl)piperazin-1-yl)-4-oxo-1,5-naphthyridin-1(4H)-yl)acetamide] | – | 7.30 to 8.30 | 5.70 to 6.30
10 | CCc1c(N2CCN(C(=O)c3ncnc(C)c3O)[C@H]3CC[C@@H]32)c(=O)c2nc(N(C)C)cnc2n1CC(=O)NC12CC(C(F)(F)F)(C1)C2 [I-110, 2-(2-(dimethylamino)-6-ethyl-7-((1S,6S)-5-(5-hydroxy-6-methylpyrimidine-4-carbonyl)-2,5-diazabicyclo[4.2.0]octan-2-yl)-8-oxopyrido[2,3-b]pyrazin-5(8H)-yl)-N-(3-(trifluoromethyl)bicyclo[1.1.1]pentan-1-yl)acetamide] | < 5.30 | 6.30 to 7.00 | –
11 | CCc1c(N2CCN(C(=O)c3ncnc(C)c3O)[C@H]3CC[C@@H]32)c(=O)c2nc(C=C(C)C)nnc2n1CC(=O)Nc1ccc(C(F)(F)F)cc1Cl [I-111, N-(2-chloro-4-(trifluoromethyl)phenyl)-2-(7-ethyl-6-((1S,6S)-5-(5-hydroxy-6-methylpyrimidine-4-carbonyl)-2,5-diazabicyclo[4.2.0]octan-2-yl)-3-(2-methylprop-1-en-1-yl)-5-oxopyrido[3,2-e] [1,2,4]triazin-8(5H)-yl)acetamide] | > 6.30 | ≥ 8.30 | –
12 | CCc1c(N2CCN(C(=O)c3ncnc(C)c3O)CC2)c(=O)c2nc3cc(C)oc3nc2n1CC(=O)Nc1ccc(C(F)(F)F)cc1Cl [I-112, N-(2-chloro-4-(trifluoromethyl)phenyl)-2-(7-ethyl-6-(4-(5-hydroxy-6-methylpyrimidine-4-carbonyl)piperazin-1-yl)-2-methyl-5-oxofuro[2,3-b]pyrido[3,2-e]pyrazin-8(5H)-yl)acetamide] | > 6.30 | 7.30 to 8.30 | –
13 | CCc1c(N2CCN(C(=O)c3ncnc(C)c3O)CC2)c(=O)c2nc3sc(C)cc3nc2n1CC(=O)Nc1ccc(C(F)(F)F)cc1Cl [I-113, N-(2-chloro-4-(trifluoromethyl)phenyl)-2-(6-ethyl-7-(4-(5-hydroxy-6-methylpyrimidine-4-carbonyl)piperazin-1-yl)-2-methyl-8-oxopyrido[2,3-b]thieno[2,3-e]pyrazin-5(8H)-yl)acetamide] | > 6.30 | ≥ 8.30 | –
14 | CCc1c(N2CCN(C(=O)c3ncnc(C)c3O)[C@H]3CC[C@@H]32)c(=O)c2nc3nc(C)sc3nc2n1CC(=O)Nc1ccc(C(F)(F)F)cc1Cl [I-114, N-(2-chloro-4-(trifluoromethyl)phenyl)-2-(6-ethyl-7-((1S,6S)-5-(5-hydroxy-6-methylpyrimidine-4-carbonyl)-2,5-diazabicyclo[4.2.0]octan-2-yl)-2-methyl-8-oxopyrido[2,3-b]thiazolo[4,5-e]pyrazin-5(8H)-yl)acetamide] | > 6.30 | 7.30 to 8.30 | –
